One data set deals with Enterococcus faecalis. Briefly: MIC against ribosome-based resistance phenotypes. Format: cell-based. The settings on record: read-out: Minimum Inhibitory Concentration (MIC). The text has this: (§1) Furthermore, the antibiotic compounds can be assayed for anti-proliferative or anti-infective properties on a cellular level. For example, where the target organism is a microorganism, the activity of compounds of interest can be assayed by growing the microorganisms of interest in media either containing or lacking the compound. Growth inhibition can be indicative that the molecule could be acting as a protein synthesis inhibitor. […] For this purpose, a panel of bacterial strains can be assembled to include a variety of target pathogenic species, some containing resistance mechanisms that have been characterized. Use of such a panel of organisms permits the determination of structure-activity relationships not only in regards to potency and spectrum, but also with a view to obviating resistance mechanisms.

The next data set relates to Staphylococcus aureus. Briefly: MIC against ribosome-based resistance phenotypes. Format: cell-based. To be noted: ATCC29213, Staphylococcus aureus ATCC29213, phenotype QC, read-out: Minimum Inhibitory Concentration (MIC).
Excerpt: as §1

Data set [1] concerns P. granulosum. Nature of the data set: Broth microdilution MIC. Format: cell-based. The settings on record: P. granulosum ATCC 25746. (In general: In broth dilution the organism is exposed to a series of concentrations in liquid medium.)
Data set [2] has as its system G. vaginalis. Briefly: Broth microdilution MIC. In kind it is cell-based. The settings on record: Gardnerella vaginalis.
Data set [3] has as its system B. fragilis. Briefly: Agar dilution MIC (CLSI reference method). In kind it is cell-based. The settings on record: Bacteroides fragilis, ATCC25285; B. fragilis ATCC 25285. For orientation: In agar dilution, organisms are placed on agar that contains the substance at set levels.
The test system of data set [4] is F. magna. Nature of the data set: Broth microdilution MIC. The settings on record: Finegoldia magna, ATCC15794; F. magna ATCC 15794. In kind it is cell-based.
A further data set deals with P. acnes. Nature of the data set: Agar dilution MIC (CLSI reference method). Format: cell-based. The settings on record: Cutibacterium acnes.
The next data set deals with S. aureus. Briefly: Broth microdilution MIC. In kind it is cell-based. To be noted: Staphylococcus aureus, ATCC29213; S. aureus ATCC 29213.
Data set [5] has as its system P. granulosum. Briefly: Agar dilution MIC (CLSI reference method). Format: cell-based. The settings on record: P. granulosum ATCC 25746.
In data set [6] the test system is F. magna. Nature of the data set: Agar dilution MIC (CLSI reference method). Format: cell-based. The settings on record: Finegoldia magna, ATCC15794; F. magna ATCC 15794.
Data set [7] has as its system G. vaginalis. Briefly: Agar dilution MIC (CLSI reference method). To be noted: Gardnerella vaginalis. In kind it is cell-based.
For data set [8], the system named is B. fragilis. Briefly: Broth microdilution MIC. The settings on record: Bacteroides fragilis, ATCC25285; B. fragilis ATCC 25285. Format: cell-based.
The next data set concerns B. thetaiotaomicron. Nature of the data set: microbe, parasite or virus in culture. In kind it is cell-based. To be noted: Bacteroides thetaiotaomicron, ATCC29741, read-out: MIC, broth microdilution.
For data set [9] the following is noted: in vivo.
The mark [10] stands for this setting: ATCC14018, G. vaginalis ATCC 14018.
Setting [11] is: ATCC49145, G. vaginalis ATCC 49145.

In brackets after ≈: the same amount, converted by molar mass. Where two headings read alike, the source gives them in different places.

`CC[C@H]1OC(=O)[C@H](C)[C@@H](O[C@H]2C[C@@](C)(OC)[C@@H](O)[C@H](C)O2)[C@H](C)[C@@H](O[C@@H]2O[C@H](C)C[C@H](N(C)C)[C@H]2O)[C@](C)(O)C[C@@H](C)CN(C)[C@H](C)[C@@H](O)[C@]1(C)O` [Azithromycin, azithromycin]: the MIC with Enterococcus faecalis (ATCC29212, Enterococcus faecalis ATCC29212, phenotype QC) amounted to 8 µg/mL (≈ 10.7 µM); in the data set on Enterococcus faecalis (ATCC29212, Enterococcus faecalis ATCC29212-P5, Lin-R (G2576U)), 8 µg/mL (≈ 10.7 µM); in the data set with Enterococcus faecalis, 128 µg/mL (≈ 171 µM); in the data set with Staphylococcus aureus it was 1 µg/mL (≈ 1.34 µM).
`CCC[C@@H]1C[C@@H](C(=O)N[C@@H]([C@H]2O[C@H](SC)[C@H](O)[C@@H](O)[C@H]2O)[C@H](C)Cl)N(C)C1` [Clindamycin, clindamycin]: the MIC was 1 µg/mL (≈ 2.35 µM) in the data set on P. granulosum [1]; 0.125 µg/mL (≈ 0.294 µM) with G. vaginalis [2] (setting [10]); not above 0.06 µg/mL with G. vaginalis [2] (setting [11]); 2 µg/mL (≈ 4.71 µM) in the data set with B. fragilis [3]; 0.5 µg/mL (≈ 1.18 µM) in the data set on F. magna [4]; not above 0.06 µg/mL with P. acnes (ATCC11827, P. acnes ATCC 11827). Besides, the MIC in the data set on P. acnes (ATCC11828, P. acnes ATCC 11828) was 0.125 µg/mL (≈ 0.294 µM); with P. acnes (ATCC29399, P. acnes ATCC 29399) it was not above 0.06 µg/mL; with S. aureus, 0.25 µg/mL (≈ 0.588 µM); in the data set with P. granulosum [5], 1 µg/mL (≈ 2.35 µM); with F. magna [6], 1 µg/mL (≈ 2.35 µM); against G. vaginalis [7] (setting [10]) it was 0.25 µg/mL (≈ 0.588 µM). The MIC against G. vaginalis [7] (setting [11]) amounted to 0.125 µg/mL (≈ 0.294 µM); in the data set on B. fragilis [8], 1 µg/mL (≈ 2.35 µM).
Regarding `CC[C@H]1OC(=O)[C@H](C)[C@@H](O[C@H]2C[C@@](C)(OC)[C@@H](O)[C@H](C)O2)[C@H](C)[C@@H](O[C@@H]2O[C@H](C)C[C@H](N(C)C)[C@H]2O)[C@](C)(O)C[C@@H](C)C(=O)[C@H](C)[C@@H](O)[C@]1(C)O` [ERY, erythromycin], the MIC against P. granulosum [1] was 16 µg/mL (≈ 21.8 µM); with G. vaginalis [2] (setting [10]), not above 0.06 µg/mL; with G. vaginalis [2] (setting [11]) it was not above 0.06 µg/mL; against F. magna [4], 4 µg/mL (≈ 5.45 µM); with S. aureus, 1 µg/mL (≈ 1.36 µM); with B. fragilis [8], 16 µg/mL (≈ 21.8 µM). For the same compound, in the data set on B. thetaiotaomicron, the MIC came to 16 µg/mL (≈ 21.8 µM).
In the case of `Cc1ncc([N+](=O)[O-])n1CCO` [MET, metronidazole], the MIC in the data set with P. granulosum [1] was 1 µg/mL (≈ 5.84 µM); against G. vaginalis [2] (setting [10]) it was 8 µg/mL (≈ 46.7 µM); with G. vaginalis [2] (setting [11]), 4 µg/mL (≈ 23.4 µM); against F. magna [4] it was 0.125 µg/mL (≈ 0.73 µM); in the data set on S. aureus, more than 32 µg/mL; in the data set on B. fragilis [8] it was 0.5 µg/mL (≈ 2.92 µM). Also, the MIC with B. thetaiotaomicron amounted to 4 µg/mL (≈ 23.4 µM).
Turning to `CN(C)[C@@H]1C(O)=C(C(N)=O)C(=O)[C@@]2(O)C(O)=C3C(=O)c4c(O)cccc4[C@@](C)(O)[C@H]3C[C@@H]12` [TET, tetracycline], the MIC with P. granulosum [1] is 0.25 µg/mL (≈ 0.563 µM); in the data set on G. vaginalis [2] (setting [10]), 0.5 µg/mL (≈ 1.13 µM); in the data set with G. vaginalis [2] (setting [11]), more than 32 µg/mL; in the data set on F. magna [4], 0.25 µg/mL (≈ 0.563 µM); with S. aureus, 1 µg/mL (≈ 2.25 µM); against B. fragilis [8], 0.25 µg/mL (≈ 0.563 µM). Besides, the MIC in the data set with B. thetaiotaomicron was found to be 8 µg/mL (≈ 18 µM).
In the case of `CC(=O)NC[C@H]1CN(c2ccc(-c3ccc(CNCc4cnn[nH]4)cc3)c(F)c2)C(=O)O1.Cl` [model compound], the “solubility of salt in water” value was 2600 µg/mL (pH 4), 200 µg/mL (pH 5.4) and 60 µg/mL (pH 6.5). The compound further returned an intrinsic solubility (pH 6.8) of 10 µg/mL. Besides, the caco-2 permeability in the data set with caco-2 worked out at 0.5 ×10⁻⁶ cm/s. Further, the positive food effect in [9] was found to be 4 ×.

These data come from patent publication US10471046B2, “Method for treating, preventing, or reducing the risk of skin infection” (Melinta Subsidiary Corp., priority 2014, dated 2019).
